Measured values as given in US20050137251A1, “Dexanabinol and dexanabinol analogs regulate inflammation related genes” (priority 2002, published 2005).
pIC50: −log10 of the molar value.

Tests used:
[1] = test system: carrageenan induced paw edema; test: Carrageenan induced paw edema; format: in vivo, mice; details: 3 hours after carrageenan
[2] = test system: PGE2 secretion; test: Inhibition of PGE2 secretion in LPS activated mouse macrophages (RAW 264.7); format: cell-based; details: RAW264.7, LPS activated RAW 264.7 cells, same experimental setup, known anti-inflammatory drugs
Experimental: The assay reproduces in vitro the true enzymatic activity, the test compounds, up to 10 μM, were preincubated for 5 minutes with purified COX-2, then the natural substrate AA was added and the reaction was allowed to proceed for 2 minutes. HCl was used to stop the enzyme catalysis and saturated stannous chloride was added to stabilize the PGH2 product into PGF2α.
RAW 264.7 macrophages, a mouse cell line (ATCC # TIB 71), were grown in Dulbecco's modified Eagle's medium (DMEM) with 4 mM L-glutamine adjusted to contain 1.5 g/L sodium bicarbonate, 4.5 g/L glucose, and 10% heat inactivated fetal bovine serum. Cells were grown in tissue culture flasks and seeded at appropriate density into 24 wells tissue culture plates. 0.5×10^6 Raw cells in one milliliter were stimulated with 2 μg/ml Lipopolysaccharide E. coli 055:B5 (DIFCO Laboratories). The mouse macrophages were pre-treated for one hour with controls or 10 μM of dexanabinol and its analogs, unless indicated otherwise, and later on activated with LPS.

[3] = test system: ConA injured liver (ALT release); test: ALT release from ConA injured liver; format: in vivo, mice; details: PRS-211,092 5 mg/kg, FK-506 1 mg/kg
Experimental: (§1) Each experimental group contained at least twenty BALB/c inbred female mice (25 g average weight, Harlan, Israel). The negative control group was composed of mice injected with saline instead of ConA. The injection of ConA (Sigma) was done i.v. at the base of the tail at the dose of 15 mg/kg in saline. The treatments were injected i.v. at 5 mg/kg, 30 minutes before ConA injection, unless indicated otherwise. Compounds were dissolved in cremophor:ethanol, further diluted with saline before injection, and vehicle only was included as an internal control. Analysis was performed at predetermined time points following ConA injection.
Impact of treatment was monitored at three levels. First, blood samples (200-400 μl) were collected at predetermined time points after ConA injection, using retro-orbital puncture. After short centrifugation (5000 rpm for 2 min) serum was recovered and stored at −80° C. until further use for determination of cytokines concentrations by ELISA and aminotransferase release from the liver as a marker for liver injury.
Alanine aminotransferase (ALT) is an enzyme found mainly in the liver and it is measured to determine whether the liver is damaged or diseased in a variety of human conditions, especially hepatitis and cirrhosis. The level of its release into the bloodstream linearly correlates with the severity of the liver injury and thus it can be used both for diagnosis purposes and to monitor the efficiency of a treatment. The time course of plasma ALT release after ConA injection is known from the literature to peak at eight hours. […] We used this assay to preliminarily assess the temporal window of PRS-211,092 efficiency and the compound was administered either 30 or 60 minutes after induction of injury. […] FK-506 was used as positive control and at the dose of 1 mg/kg, it reduced ALT concentrations by 92%, 93% and 86% when injected at the three previously described time points. Thus, the test compound has an important beneficial impact on liver injury as assessed by the reduction of ALT, a robust marker of the liver injury. […]

[4] = test system: haptoglobin gene expression; test: Haptoglobin liver gene expression (acute phase response), ConA model; format: in vivo, mice; details: 1 mg/kg, on average at both time points of four and eight hours
Experimental: (§2) II reverse transcriptase (Life Technologies).
as §1
(§3) The acute phase response is an innate body defense seen during acute inflammation, infection and trauma, which involves the altered production of certain blood proteins termed acute phase proteins (APPs). As previously stated activated macrophages and other leukocytes release pro-inflammatory cytokines such as TNF-α, IL-1 and IL-6. These cytokines in turn stimulate hepatocytes to synthesize and secrete acute phase proteins such as C-reactive protein (CRP), mannose-binding lectin (MBL), haptoglobin and serum amyloid A (SAA). Measurement of acute phase protein level is used to monitor the severity of the innate response and thus predict the prognosis of the disease. […]

[5] = test system: SAA-3 gene expression; test: SAA-3 liver gene expression (acute phase response), ConA model; format: in vivo, mice; details: 1 mg/kg, on average at both time points of four and eight hours
Experimental: as §2, §1, §3

[6] = molecular target: recombinant COX-2 (Homo sapiens, UniProt P35354); test: In vitro enzymatic activity of recombinant COX-2 (PGF2α EIA); format: biochemical
recombinant COX-2, sequence (P35354 18-604): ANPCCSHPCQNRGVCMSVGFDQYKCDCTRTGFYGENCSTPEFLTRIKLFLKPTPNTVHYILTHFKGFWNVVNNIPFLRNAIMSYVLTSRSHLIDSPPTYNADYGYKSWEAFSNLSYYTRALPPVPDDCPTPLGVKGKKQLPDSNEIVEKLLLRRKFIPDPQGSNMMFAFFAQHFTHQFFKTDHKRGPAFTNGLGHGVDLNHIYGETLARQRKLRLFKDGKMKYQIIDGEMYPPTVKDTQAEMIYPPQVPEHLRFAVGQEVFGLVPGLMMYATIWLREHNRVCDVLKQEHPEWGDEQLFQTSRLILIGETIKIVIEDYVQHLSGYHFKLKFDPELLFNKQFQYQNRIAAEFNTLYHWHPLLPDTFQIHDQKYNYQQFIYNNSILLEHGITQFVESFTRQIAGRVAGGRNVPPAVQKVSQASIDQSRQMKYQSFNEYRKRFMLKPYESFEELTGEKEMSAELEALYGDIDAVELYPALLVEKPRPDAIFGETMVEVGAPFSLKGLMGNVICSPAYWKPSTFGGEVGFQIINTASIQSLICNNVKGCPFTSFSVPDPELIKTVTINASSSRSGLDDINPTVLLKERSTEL

SMILES	Reduction in paw thickness ([1]; 0.1 mg/kg i.p.) [%]	Reduction in paw thickness ([1]; 0.25 mg/kg i.p.) [%]	Reduction in paw thickness ([1]; 0.5 mg/kg i.p.) [%]	pIC50 [2]	further results
Cc1ccc(-c2cc(C(F)(F)F)nn2-c2ccc(S(N)(=O)=O)cc2)cc1 [Celecoxib]	24	28	33	8.30	–
C[C@@H]1C[C@H]2[C@@H]3CCC4=CC(=O)C=C[C@]4(C)[C@@]3(F)[C@@H](O)C[C@]2(C)[C@@]1(O)C(=O)CO [Dexamethasone]	26	31	33	–	–
C=CC[C@@H]1/C=C(\C)C[C@H](C)C[C@H](OC)[C@H]2O[C@@](O)(C(=O)C(=O)N3CCCC[C@H]3C(=O)O[C@H](/C(C)=C/[C@@H]3CC[C@@H](O)[C@H](OC)C3)[C@H](C)[C@@H](O)CC1=O)[C@H](C)C[C@@H]2OC [FK-506]	–	–	–	–	Reduction of ALT concentrations ([3]; administered 30 minutes after induction of injury): 93%; Reduction of ALT concentrations ([3]; administered 30 minutes before ConA, 8 hours after ConA): 92%; Reduction of ALT concentrations ([3]; administered 60 minutes after induction of injury): 86%; Reduction in gene expression of haptoglobin [4]: 78%; Reduction in gene expression of SAA-3 [5]: 97%
CS(=O)(=O)Nc1ccc([N+](=O)[O-])cc1OC1CCCCC1 [NS-398]	–	–	–	7.00	–
CS(=O)(=O)c1ccc(C2=C(c3ccccc3)C(=O)OC2)cc1 [Rofecoxib, reference compound]	–	–	–	7.00	Inhibition of COX-2 enzymatic activity [6]: strongly inhibited
